# According to PMC10011554, “BET inhibitor trotabresib in heavily pretreated patients with solid tumors and diffuse large B-cell lymphomas” (Nature Communications, 2023):
# Assay: Adverse events, DLTs, MTD and RP2D in phase I study CC-90010-ST-001 (NCI CTCAE v4.03)
# Type: in vivo
# Conditions: for TRAE: ALT increased / TRAE: Anemia / TRAE: Any TRAE / TRAE: Asthenia / TRAE: Decreased appetite / TRAE: Dehydration / TRAE: Dermatitis acneiform / TRAE: Diarrhoea / TRAE: Dysgeusia / TRAE: Fatigue / TRAE: Hyperglycemia / TRAE: Hypertension / TRAE: Hyponatremia / TRAE: Hypophosphatemia / TRAE: Nausea / TRAE: Neutropenia / TRAE: Platelet count decreased / TRAE: Stomatitis / TRAE: Thrombocytopenia / TRAE: Vomiting: part A 45 mg/day
# Description: The primary endpoints of the study were the safety and tolerability of trotabresib, as well as the MTD and/or RP2D of trotabresib. Safety was assessed using the National Cancer Institute Common Terminology Criteria for Adverse Events v4.03[53].
# The decision to evaluate additional subjects within a dose cohort, a higher dose cohort, intermediate dose cohorts, smaller dose increments, alternate dosing schedules, or declare an MTD will also be determined by the SRC, based on their review of clinical and laboratory safety […]
# 7.2.4. Definition of a Subject Evaluable for DLT
# After the first dose is administered in any cohort during dose escalation, subjects in each cohort […]
# more than one subject per day will be enrolled in a given dose escalation cohort.
# A subject evaluable for DLT is defined as one that: […]
# without experiencing a DLT,
# Subjects non-evaluable for DLT will be replaced. Additional subjects within any dose cohort may be enrolled at the discretion of the SRC. Intra-subject dose escalation will not be allowed during the DLT assessment period.
# 7.2.5. Definition of Maximum Tolerated Dose (MTD) […]
# of MTD is described in Section 7.2.2.
# A variable dose cohort (eg, less frequent dosing) may be evaluated to accurately determine the MTD at the discretion of the SRC.
# 7.2.6. Definition of Dose-Limiting Toxicity (DLT) […]
# used as a guide for the grading of severity of adverse events. A DLT is defined as any of the following toxicities occurring within the DLT assessment unless the event can clearly be […]
# Do se-limiting toxicities are described below:
# • Hyperglycemia meeting any of the following criteria:
# − Grade 3 or greater fasting hyperglycemia (> 250 mg/dL) lasting > 4 days despite optimal medical treatment
# (1 picture or pasted object on this page, not shown here)
# − Hyperglycemia associated with diabetic ketoacidosis or nonketotic hyperosmolar coma regardless of glucose level
# − Hyperglycemia that necessitates dose reduction despite dose interruption and resolution to ≤ grade 1 hyperglycemia within two weeks as described in […]
# • Any Grade 4 non-hematologic toxicity of any duration
# • Any non-hematologic toxicity Grade ≥ 3 EXCEPT for:
# − Grade 3 diarrhea, nausea, or vomiting of ≤ 3 days duration (with optimal medical […]
# − Grade 3 rash of the acneiform, pustular or maculopapular type which resolves to […]
# level with resumption of study drug at the same dose (with optimal medical […]
# − Grade 3 fatigue which resolves to Grade ≤ 2 within 7 days of study drug […]
# the same dose (with optimal medical management).
# • Hematological toxicities as follows:
# − Grade 4 neutropenia lasting > 7 days
# − Grade 4 thrombocytopenia lasting > 7 days, Grade ≥ 3 thrombocytopenia with clinically significant bleeding
# • Any AE, Grade ≥ 2 not specified or exempt above, unless clearly determined to be unrelated to the drug, necessitating dose-level reduction during Cycle 1.
# Isolated laboratory changes without associated clinical signs or symptoms (eg, hypomagnesemia, hypermagnesemia, hypoalbuminemia, hypophosphatemia, lymphocyte count increased or decreased) may not be included in this definition. These findings will be discussed and reviewed […]
# 7.2.7. Criteria for Dose Escalation in the Next Cohort of Subjects
# During Part A, the dose escalation criteria are described in Section 7.2.2.
# 7.2.8. Definition of Stopping Criteria
# During Part A, the dose escalation stopping rules are in Section 7.2.2.
# 7.2.9. Permitted Study Drug Adjustments
# Dose reductions are permitted in any cycle, including Cycle 1.
# • Dose reductions that occur in Cycle 1 during dose escalation will constitute DLT as […]
# [1] = part A (N = 69), 02 Dec 2019 cutoff
smiles,measurement,setting,value
Cn1cc(-c2cc(S(C)(=O)=O)ccc2OCC2CC2)c2ccccc2c1=O [trotabresib],MTD,"Schedule A, 3-days-on/11-days-off (180 mg per 28-day cycle)",30 mg/dose
same,MTD,"Schedule B, 4-days-on/24-days-off (180 mg per 28-day cycle)",45 mg/dose
same,MTD,"Schedule C, 2-days-on/5-days-off (120 mg per 28-day cycle)",15 mg/dose
same,dose intensity below which well tolerated,"human, in vivo",below 200 mg per 28-day cycle
same,further grade 3 and 4 TRAEs reported in one patient each,overall part A population,"Grade 3 essential hypertension, hypokalemia, lipase increased, liver function test abnormal, presyncope, skin hemorrhage, and grade 4 blood creatinine phosphokinase increased, diabetes mellitus, and inappropriate antidiuretic hormone secretion"
same,TRAE: ALT increased,any grade,0%
same,TRAE: Anemia,any grade,28.57%
same,TRAE: Any TRAE,any grade,85.71%
same,TRAE: Asthenia,any grade,14.29%
same,TRAE: Decreased appetite,any grade,0%
same,TRAE: Dehydration,any grade,0%
same,TRAE: Dermatitis acneiform,any grade,0%
same,TRAE: Diarrhoea,any grade,42.86%
same,TRAE: Dysgeusia,any grade,14.29%
same,TRAE: Fatigue,any grade,0%
same,TRAE: Hyperglycemia,any grade,0%
same,TRAE: Hypertension,any grade,0%
same,TRAE: Hyponatremia,any grade,0%
same,TRAE: Hypophosphatemia,any grade,0%
same,TRAE: Nausea,any grade,28.57%
same,TRAE: Neutropenia,any grade,0%
same,TRAE: Platelet count decreased,any grade,0%
same,TRAE: Stomatitis,any grade,42.86%
same,TRAE: Thrombocytopenia,any grade,71.43%
same,TRAE: Vomiting,any grade,14.29%
same,TRAE: ALT increased,grade 3,0%
same,TRAE: Anemia,grade 3,14.29%
same,TRAE: Any TRAE,grade 3,14.29%
same,TRAE: Asthenia,grade 3,0%
same,TRAE: Decreased appetite,grade 3,0%
same,TRAE: Dehydration,grade 3,0%
same,TRAE: Dermatitis acneiform,grade 3,0%
same,TRAE: Diarrhoea,grade 3,0%
same,TRAE: Dysgeusia,grade 3,0%
same,TRAE: Fatigue,grade 3,0%
same,TRAE: Hyperglycemia,grade 3,0%
same,TRAE: Hypertension,grade 3,0%
same,TRAE: Hyponatremia,grade 3,0%
same,TRAE: Hypophosphatemia,grade 3,0%
same,TRAE: Nausea,grade 3,0%
same,TRAE: Neutropenia,grade 3,0%
same,TRAE: Platelet count decreased,grade 3,0%
same,TRAE: Stomatitis,grade 3,0%
same,TRAE: Thrombocytopenia,grade 3,0%
same,TRAE: Vomiting,grade 3,0%
same,TRAE: ALT increased,grade 4,0%
same,TRAE: Anemia,grade 4,0%
same,TRAE: Any TRAE,grade 4,14.29%
same,TRAE: Asthenia,grade 4,0%
same,TRAE: Decreased appetite,grade 4,0%
same,TRAE: Dehydration,grade 4,0%
same,TRAE: Dermatitis acneiform,grade 4,0%
same,TRAE: Diarrhoea,grade 4,0%
same,TRAE: Dysgeusia,grade 4,0%
same,TRAE: Fatigue,grade 4,0%
same,TRAE: Hyperglycemia,grade 4,0%
same,TRAE: Hypertension,grade 4,0%
same,TRAE: Hyponatremia,grade 4,0%
same,TRAE: Hypophosphatemia,grade 4,0%
same,TRAE: Nausea,grade 4,0%
same,TRAE: Neutropenia,grade 4,0%
same,TRAE: Platelet count decreased,grade 4,0%
same,TRAE: Stomatitis,grade 4,0%
same,TRAE: Thrombocytopenia,grade 4,14.29%
same,TRAE: Vomiting,grade 4,0%
same,subjects with at least one DLT,part A (N = 69),6 subjects
same,Grade 3 or 4 TEAE anemia,[1],4.3%
same,Grade 3 or 4 TEAE arthralgia,[1],2.9%
same,Grade 3 or 4 TEAE asthenia,[1],5.8%
same,Grade 3 or 4 TEAE back pain,[1],2.9%
same,Grade 3 or 4 TEAE cognitive disorder,[1],2.9%
same,Grade 3 or 4 TEAE decreased performance status,[1],2.9%
same,Grade 3 or 4 TEAE decreased platelet count,[1],2.9%
same,Grade 3 or 4 TEAE dyspnea,[1],2.9%
same,Grade 3 or 4 TEAE fatigue,[1],2.9%
same,Grade 3 or 4 TEAE hyperglycemia,[1],5.8%
same,Grade 3 or 4 TEAE hypokalemia,[1],2.9%
same,Grade 3 or 4 TEAE hyponatremia,[1],2.9%
same,Grade 3 or 4 TEAE increased ALT,[1],4.3%
same,Grade 3 or 4 TEAE thrombocytopenia,[1],13.0%
same,TEAE abdominal pain,[1],14.5%
same,TEAE anemia,[1],15.9%
same,TEAE asthenia,[1],39.1%
same,TEAE constipation,[1],13.0%
same,TEAE decreased appetite,[1],24.6%
same,TEAE dermatitis acneiform,[1],13.0%
same,TEAE diarrhea,[1],42.0%
